# Measurements reported in US12565489B2, “Heterocyclyl pyrimidines and triazines as novel fungicides” (Bayer Aktiengesellschaft, priority 2020, dated 2026).
# Key:
# Alternaria brassicae = test: In vivo preventive test on Alternaria brassicae (leaf spot on radish or cabbage); conditions: 144 h, 500 ppm of active ingredient, preventive spray on young radish or cabbage plants, evaluated 6 days after inoculation, read-out: efficacy
# Procedure: (§1) The active ingredients were made soluble and homogenized in a mixture of Dimethyl sulfoxide/Acetone//Tween®80 and then diluted in water to the desired concentration. The young plants of radish or cabbage were treated by spraying the active ingredient prepared as described above. Control plants were treated only with an aqueous solution of Acetone/Dimethyl sulfoxide/Tween® 80. After 24 hours, the plants were contaminated by spraying the leaves with an aqueous suspension of Alternaria brassicae spores.
# [1] = system: Colletotrichum lindemuthianum; test: Colletotrichum lindemuthianum in vitro cell test; assay type: cell-based; conditions: 144 h, 20 ppm of active ingredient, 6 days incubation, liquid culture, spectrometric measurement of mycelium growth, read-out: efficacy (inhibition of fungal growth)
# Procedure: (§2) • Solvent: DMSO • Culture medium: 14.6 g anhydrous D-glucose (VWR), 7.1 g Mycological Peptone (Oxoid), 1.4 g granulated Yeast Extract (Merck), QSP 1 liter • Inoculum: spore suspension Fungicides were solubilized in DMSO and the solution used to prepare the required range of concentrations. […] A spore suspension of C. lindemuthianum was prepared and diluted to the desired spore density. Fungicides were evaluated for their ability to inhibit spores germination and mycelium growth in liquid culture assay. The compounds were added in the desired concentration to the culture medium with spores. After 6 days incubation, fungi-toxicity of compounds was determined by spectrometric measurement of mycelium growth. Inhibition of fungal growth was determined by comparing the absorbance values in wells containing the fungicides with the absorbance in control wells without fungicides.
# Pyrenophora teres = Pyrenophora teres in vitro cell test; assay type: cell-based; conditions: 144 h, 20 ppm of active ingredient, 6 days incubation, liquid culture, spectrometric measurement of mycelium growth, read-out: efficacy (inhibition of fungal growth)
# Procedure: as §2, with “of P. teres” for “of C. lindemuthianum”, “inhibit spore” for “inhibit spores”
# Alternaria alternata = Alternaria alternata in vitro cell test; assay type: cell-based; conditions: 120 h, 20 ppm of active ingredient, 5 days incubation, liquid culture, spectrometric measurement of mycelium growth, read-out: efficacy (inhibition of fungal growth)
# Procedure: as §2, with “of A. alternata” for “of C. lindemuthianum”, “inhibit spore” for “inhibit spores”, “After 5” for “After 6”
# Septoria tritici = Septoria tritici in vitro cell test; assay type: cell-based; conditions: Zymoseptoria tritici, 168 h; 20 ppm of active ingredient; 7 days incubation; liquid culture, spectrometric measurement of mycelium growth; read-out: efficacy (inhibition of fungal growth)
# Procedure: • Solvent: DMSO • Culture medium: 1 g KH2PO4 (VWR), 1 g K2HPO4 (VWR), 0.5 g Urea (VWR), 3 g KNO3 (Prolabo), 10 g saccharose (VWR), 0.5 g MgSO4, 7H2O (Sigma), 0.07 g CaCl2, 2H2O (Prolabo), 0.2 mg MnSO4, H2O (Sigma), 0.6 mg CuSO4, 5H2O (Sigma), 7.9 mg ZnSO4, 7H2O (Sigma), 0.1 mg H3BO3 (Merck), 0.14 mg NaMoO4, 2H2O (Sigma), 2 mg thiamine (Sigma), 0.1 mg biotine (VWR), 4 mg FeSO4, 7H2O (Sigma), QSP 1 liter • Inoculum: spore suspension Fungicides were solubilized in DMSO and the solution used to prepare the required range of concentrations. […] A spore suspension of S. tritici was prepared and diluted to the desired spore density. Fungicides were evaluated for their ability to inhibit spore germination and mycelium growth in liquid culture assay. The compounds were added in the desired concentration to the culture medium with spores. […] Inhibition of fungal growth was determined by comparing the absorbance values in wells containing the fungicides with the absorbance in control wells without fungicides.
# Pyricularia oryzae = test: microbe, parasite or virus in culture; assay type: cell-based; conditions: 120 h, read-out: efficacy (inhibition of fungal growth)
# [2] = system: Colletotrichum lindemuthianum; test: In vivo preventive test on Colletotrichum lindemuthianum (leaf spot on bean); conditions: 168 h, 500 ppm of active ingredient, preventive spray on young bean plants, evaluated 7 days after inoculation, read-out: efficacy
# Procedure: as §1, with “bean” for “radish or cabbage”, “Colletotrichum lindemuthianum” for “Alternaria brassicae”
# Botrytis cinerea = test: In vivo preventive test on Botrytis cinerea (grey mould); conditions: 500 ppm of active ingredient, preventive spray on young gherkin or cabbage plants, evaluated 4 to 5 days after inoculation, read-out: efficacy
# Procedure: as §1, with “gherkin” for “radish”, “Botrytis cinerea” for “Alternaria brassicae”
SMILES,pest or weed control at 500 ppm (Alternaria brassicae) [%],inhibition at 20 ppm [1] [%],inhibition at 20 ppm (Pyrenophora teres) [%],inhibition at 20 ppm (Alternaria alternata) [%],inhibition at 20 ppm (Septoria tritici) [%],inhibition at 20 ppm (Pyricularia oryzae) [%],pest or weed control at 500 ppm [2] [%],pest or weed control at 500 ppm (Botrytis cinerea) [%]
C=Cc1cccc(Oc2cnc(C)nc2C2=NOC[C@@H](Cc3ccc(C)cc3C)N2)c1 (racemic) [Compound I-019],90 to 100,90 to 100,90 to 100,90 to 100,90 to 100,90 to 100,90 to 100,90 to 100
Cc1ccc(C[C@@H]2CON=C(c3nc(C)ncc3Oc3cccc(Br)c3)N2)c(C)c1 (racemic) [Compound I-009],90 to 100,90 to 100,90 to 100,90 to 100,90 to 100,90 to 100,90 to 100,90 to 100
C=Cc1ccc(C[C@@H]2CON=C(c3nc(C)ncc3Oc3cccc(C(F)(F)F)c3)N2)c(C)c1 (racemic) [Compound I-006],90 to 100,90 to 100,90 to 100,90 to 100,90 to 100,70 to 79,90 to 100,80 to 89
Cc1ccc(C[C@@H]2CON=C(c3nc(C)ncc3Oc3cccc(Cl)c3)N2)c(Cl)c1 (racemic) [Compound I-018],90 to 100,90 to 100,90 to 100,90 to 100,90 to 100,90 to 100,90 to 100,90 to 100
Cc1ccc(C[C@@H]2CON=C(c3nc(C)ncc3Oc3cccc(C(F)(F)F)c3)N2)c(Cl)c1 (racemic) [Compound I-013],90 to 100,90 to 100,90 to 100,90 to 100,90 to 100,,90 to 100,90 to 100
Cc1ccc(C[C@@H]2CON=C(c3nc(C)ncc3Oc3cccc(C4CC4)c3)N2)c(C)c1 (racemic) [Compound I-024],90 to 100,90 to 100,90 to 100,90 to 100,90 to 100,90 to 100,90 to 100,90 to 100
Cc1ccc(C[C@@H]2CON=C(c3nc(C)ncc3Oc3cccc(Cl)c3)N2)c(C)c1 (racemic) [Compound I-023],90 to 100,90 to 100,90 to 100,90 to 100,80 to 89,90 to 100,90 to 100,90 to 100
"C#Cc1ccc(CC2CON=C(c3nc(C)ncc3Oc3cccc(C(F)(F)F)c3)N2)c(C)c1 (racemic) [Compound I-026, (5RS)-5-[(4-ethynyl-2-methyl-phenyl)methyl]-3-[2-methyl-5-[3-(trifluoromethyl)phenoxy]pyrimidin-4-yl]-5,6-dihydro-4H-1,2,4-oxadiazine]",90 to 100,90 to 100,90 to 100,90 to 100,90 to 100,90 to 100,90 to 100,90 to 100
Cc1cccc(Oc2cnc(C)nc2C2=NOC[C@@H](Cc3ccc(C)cc3C)N2)c1 (racemic) [Compound I-004],90 to 100,90 to 100,90 to 100,90 to 100,90 to 100,90 to 100,90 to 100,90 to 100
CSc1ncc(Oc2cccc(C(F)(F)F)c2)c(C2=NOC[C@@H](Cc3ccc(C)cc3C)N2)n1 (racemic) [Compound I-017],90 to 100,90 to 100,90 to 100,70 to 79,70 to 79,,80 to 89,90 to 100
Cc1ncc(Oc2cccc(C(F)(F)F)c2)c(C2=NOC[C@@H](Cc3ccc(C(F)F)cc3Cl)N2)n1 (racemic) [Compound I-033],90 to 100,90 to 100,90 to 100,90 to 100,90 to 100,70 to 79,80 to 89,90 to 100
Cc1ncc(Oc2cccc(C(F)(F)F)c2)c(C2=NOC[C@@H](Cc3ccc(SC(F)(F)F)cc3)N2)n1 (racemic) [Compound I-030],80 to 89,90 to 100,90 to 100,80 to 89,70 to 79,,70 to 79,90 to 100
Cc1ccc(C[C@@H]2CON=C(c3nc(C)ncc3Oc3cccc(C4CC4)c3F)N2)c(C)c1 (racemic) [Compound I-016],90 to 100,90 to 100,90 to 100,90 to 100,90 to 100,90 to 100,90 to 100,90 to 100
Cc1ccc(C[C@@H]2CON=C(c3nc(C)ncc3Oc3cccc(C4CC4)c3F)N2)c(Cl)c1 (racemic) [Compound I-008],90 to 100,90 to 100,90 to 100,90 to 100,90 to 100,90 to 100,90 to 100,90 to 100
C#Cc1cccc(Oc2cnc(C)nc2C2=NOC[C@@H](Cc3ccc(C)cc3C)N2)c1 (racemic) [Compound I-025],90 to 100,90 to 100,90 to 100,90 to 100,90 to 100,90 to 100,90 to 100,90 to 100
